# Data reported in paper PMC12212627, “Machine Learning-Based Virtual Screening of Antibacterial Agents against Methicillin-Susceptible and Resistant Staphylococcus aureus” (Journal of Chemical Information and Modeling, 2024).
# System: MSSA and MRSA strains
# Experiment: Broth microdilution, results summed up over MSSA and MRSA strains
# Format: cell-based, Staphylococcus aureus
# Conditions: tested compounds of Supporting Table S4, 100 μM
# Description: (§1) E. coli (ATCC n° […]) – a TEM-1 β-lactamase producing strain, S. aureus (ATCC n° 29213) – herein referred to as MSSA, MRSA (ATCC n° 43300), and two clinical strains of MRSA (n° 5749 and 6154) were used in the biological assays. The antibacterial activity and minimal inhibitory concentration (MIC) of the screened compounds were evaluated with the broth microdilution method in 96-well microplates, according to the Clinical and Laboratory Standards Institute (CLSI) protocol. Initially, compounds were evaluated in a screening assay to identify promising hits. The compounds were dissolved in dimethyl sulfoxide (DMSO) and then diluted in Mueller Hinton broth (MHB; Oxoid, Thermo Scientific, U.K.) to a concentration of 200 μM. After the addition of 100 μL to each well, the same volume of bacterial suspension containing 10^5 CFU/mL was added to each of the previous solutions, resulting in a final compound concentration of 100 μM. A viability control (bacterial suspension only), inhibition controls (MHB containing five times the MIC of penicillin G for MSSA, vancomycin for MRSA strains, and streptomycin for E. coli), a sterility control (medium only), and a vehicle control (DMSO 2% v/v) were included in each assay microplate. After 24 h of incubation at 37 °C, the microplates were visually inspected for inhibition of bacterial growth, and the absorbance at 600 nm of each well was read using a microplate reader spectrophotometer (VersaMax, Molecular Devices, CA). The percentage of growth inhibition was calculated as the percentage of growth reduction compared with the vehicle control. Wells showing no visual bacterial growth (no turbidity) were considered hits. The MIC of the promising compounds in the initial screening were tested as previously described, with a serial dilution of each compound (100–1.56 μM). All conditions were tested in triplicate from at least three independent assays.
row,SMILES,antibacterial activity (in words)
1,CC(=O)OC1C(C)OC(n2cc(COC3=CC(=O)c4ccccc4C3=O)nn2)C(OC(C)=O)C1OC(C)=O (stereo not shown) [S33],inactive
2,O=C1C=C(OCc2cn(-c3ccccc3)nn2)C(=O)c2ccccc21 [S12],no antibacterial activity

# System: E. coli (ATCC 35218), TEM-1 β-lactamase producing strain
# Experiment: Broth microdilution (CLSI): screening at 100 μM and MIC, E. coli
# Format: cell-based
# Conditions: at 100 uM, Table S4
# Description: as §1
row,SMILES,Percentage of growth inhibition E. coli (ATCC 35218)
1,O=C1C(O)=C(Cc2cn(C3OC(CO)C(O)C(O)C3O)nn2)C(=O)c2ccccc21 (stereo not shown) [S25],0%
2,OC(COc1cccc2ccccc12)COc1cccc2ccccc12 [S17],0%
3,NCCNC(=O)c1cc2ccccc2[nH]1 [S45],0%
4,O=C(NCCO)c1cc2ccccc2[nH]1 [S48],0%
5,O=C(C=Cc1ccccc1)NC(CO)COc1ccc([N+](=O)[O-])cc1 (stereo not shown) [S14],0%
6,CC1(C)OCC(CO)N1C(=O)OCc1ccccc1 (stereo not shown) [S13],0%
7,CCCNC(=O)c1cc2ccccc2[nH]1 [S47],0%
8,N#Cc1ccccc1OCC(O)COc1ccccc1C#N [S18],0%
9,CC(=O)OC1C(C)OC(n2cc(COC3=CC(=O)c4ccccc4C3=O)nn2)C(OC(C)=O)C1OC(C)=O (stereo not shown) [S33],0%
10,O=C1C=C(OCc2cn(-c3ccccc3)nn2)C(=O)c2ccccc21 [S12],0%

# System: clinical strain of MRSA n° 6154
# Experiment: Broth microdilution (CLSI): screening at 100 μM and MIC, MRSA clinical strain 6154
# Format: cell-based, Staphylococcus aureus
# Conditions: at 100 uM, Table S4
# Description: as §1
row,SMILES,Percentage of growth inhibition MRSA (6154)
1,O=C1C(O)=C(Cc2cn(C3OC(CO)C(O)C(O)C3O)nn2)C(=O)c2ccccc21 (stereo not shown) [S25],0%
2,OC(COc1cccc2ccccc12)COc1cccc2ccccc12 [S17],0%
3,NCCNC(=O)c1cc2ccccc2[nH]1 [S45],0%
4,O=C(NCCO)c1cc2ccccc2[nH]1 [S48],0%
5,O=C(C=Cc1ccccc1)NC(CO)COc1ccc([N+](=O)[O-])cc1 (stereo not shown) [S14],0%
6,CC1(C)OCC(CO)N1C(=O)OCc1ccccc1 (stereo not shown) [S13],0%
7,CCCNC(=O)c1cc2ccccc2[nH]1 [S47],0%
8,N#Cc1ccccc1OCC(O)COc1ccccc1C#N [S18],0%
9,CC(=O)OC1C(C)OC(n2cc(COC3=CC(=O)c4ccccc4C3=O)nn2)C(OC(C)=O)C1OC(C)=O (stereo not shown) [S33],0%
10,O=C1C=C(OCc2cn(-c3ccccc3)nn2)C(=O)c2ccccc21 [S12],0%

# System: clinical strain of MRSA n° 5749
# Experiment: Broth microdilution (CLSI): screening at 100 μM and MIC, MRSA clinical strain 5749
# Format: cell-based, Staphylococcus aureus
# Conditions: at 100 uM, Table S4
# Description: as §1
row,SMILES,Percentage of growth inhibition MRSA (5749)
1,O=C1C(O)=C(Cc2cn(C3OC(CO)C(O)C(O)C3O)nn2)C(=O)c2ccccc21 (stereo not shown) [S25],0%
2,OC(COc1cccc2ccccc12)COc1cccc2ccccc12 [S17],0%
3,NCCNC(=O)c1cc2ccccc2[nH]1 [S45],0%
4,O=C(NCCO)c1cc2ccccc2[nH]1 [S48],0%
5,O=C(C=Cc1ccccc1)NC(CO)COc1ccc([N+](=O)[O-])cc1 (stereo not shown) [S14],0%
6,CC1(C)OCC(CO)N1C(=O)OCc1ccccc1 (stereo not shown) [S13],0%
7,CCCNC(=O)c1cc2ccccc2[nH]1 [S47],0%
8,N#Cc1ccccc1OCC(O)COc1ccccc1C#N [S18],0%
9,CC(=O)OC1C(C)OC(n2cc(COC3=CC(=O)c4ccccc4C3=O)nn2)C(OC(C)=O)C1OC(C)=O (stereo not shown) [S33],0%
10,O=C1C=C(OCc2cn(-c3ccccc3)nn2)C(=O)c2ccccc21 [S12],0%

# System: MRSA (ATCC n° 43300)
# Experiment: Broth microdilution (CLSI): screening at 100 μM and MIC, MRSA reference strain
# Format: cell-based, Staphylococcus aureus
# Conditions: at 100 uM, Table S4
# Description: as §1
row,SMILES,Percentage of growth inhibition MRSA (ATCC 43300)
1,O=C1C(O)=C(Cc2cn(C3OC(CO)C(O)C(O)C3O)nn2)C(=O)c2ccccc21 (stereo not shown) [S25],0%
2,OC(COc1cccc2ccccc12)COc1cccc2ccccc12 [S17],0%
3,NCCNC(=O)c1cc2ccccc2[nH]1 [S45],0%
4,O=C(NCCO)c1cc2ccccc2[nH]1 [S48],0%
5,O=C(C=Cc1ccccc1)NC(CO)COc1ccc([N+](=O)[O-])cc1 (stereo not shown) [S14],0%
6,CC1(C)OCC(CO)N1C(=O)OCc1ccccc1 (stereo not shown) [S13],0%
7,CCCNC(=O)c1cc2ccccc2[nH]1 [S47],0%
8,N#Cc1ccccc1OCC(O)COc1ccccc1C#N [S18],0%
9,CC(=O)OC1C(C)OC(n2cc(COC3=CC(=O)c4ccccc4C3=O)nn2)C(OC(C)=O)C1OC(C)=O (stereo not shown) [S33],0%
10,O=C1C=C(OCc2cn(-c3ccccc3)nn2)C(=O)c2ccccc21 [S12],0%

# System: S. aureus (ATCC n° 29213), MSSA
# Experiment: Broth microdilution (CLSI): screening at 100 μM and MIC, MSSA
# Format: cell-based, Staphylococcus aureus
# Conditions: at 100 uM, Table S4
# Description: as §1
row,SMILES,Percentage of growth inhibition MSSA (ATCC 29123)
1,O=C1C(O)=C(Cc2cn(C3OC(CO)C(O)C(O)C3O)nn2)C(=O)c2ccccc21 (stereo not shown) [S25],0%
2,OC(COc1cccc2ccccc12)COc1cccc2ccccc12 [S17],0%
3,NCCNC(=O)c1cc2ccccc2[nH]1 [S45],0%
4,O=C(NCCO)c1cc2ccccc2[nH]1 [S48],0%
5,O=C(C=Cc1ccccc1)NC(CO)COc1ccc([N+](=O)[O-])cc1 (stereo not shown) [S14],0%
6,CC1(C)OCC(CO)N1C(=O)OCc1ccccc1 (stereo not shown) [S13],0%
7,CCCNC(=O)c1cc2ccccc2[nH]1 [S47],0%
8,N#Cc1ccccc1OCC(O)COc1ccccc1C#N [S18],0%
9,CC(=O)OC1C(C)OC(n2cc(COC3=CC(=O)c4ccccc4C3=O)nn2)C(OC(C)=O)C1OC(C)=O (stereo not shown) [S33],0%
10,O=C1C=C(OCc2cn(-c3ccccc3)nn2)C(=O)c2ccccc21 [S12],0%
